Laboratory results as given in patent US10266497B2 (ABIDE THERAPEUTICS, INC., priority 2017, dated 2019).

Columns and labels:
MAGL [1] = target: T1, MAGL (Homo sapiens, UniProt Q99685); assay: In vitro competitive activity-based protein profiling, MAGL, human; settings: for inhibition at 1 µM: read-out: MAGL % inh. 1 μM (human)
T1 sequence (Q99685 1-303): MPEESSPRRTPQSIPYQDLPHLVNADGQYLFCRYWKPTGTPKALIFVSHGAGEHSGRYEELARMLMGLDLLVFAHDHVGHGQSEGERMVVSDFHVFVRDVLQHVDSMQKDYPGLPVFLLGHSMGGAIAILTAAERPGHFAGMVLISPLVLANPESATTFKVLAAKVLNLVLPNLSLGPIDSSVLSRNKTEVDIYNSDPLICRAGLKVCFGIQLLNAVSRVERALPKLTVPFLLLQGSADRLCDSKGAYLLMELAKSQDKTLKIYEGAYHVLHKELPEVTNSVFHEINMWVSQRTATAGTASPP

FAAH [2] = target: T2, FAAH (Mus musculus, UniProt O08914); assay: In vitro competitive activity-based protein profiling, FAAH, mouse; settings: read-out: FAAH % inh. 1 μM (mouse)
T2 sequence (O08914 1-579): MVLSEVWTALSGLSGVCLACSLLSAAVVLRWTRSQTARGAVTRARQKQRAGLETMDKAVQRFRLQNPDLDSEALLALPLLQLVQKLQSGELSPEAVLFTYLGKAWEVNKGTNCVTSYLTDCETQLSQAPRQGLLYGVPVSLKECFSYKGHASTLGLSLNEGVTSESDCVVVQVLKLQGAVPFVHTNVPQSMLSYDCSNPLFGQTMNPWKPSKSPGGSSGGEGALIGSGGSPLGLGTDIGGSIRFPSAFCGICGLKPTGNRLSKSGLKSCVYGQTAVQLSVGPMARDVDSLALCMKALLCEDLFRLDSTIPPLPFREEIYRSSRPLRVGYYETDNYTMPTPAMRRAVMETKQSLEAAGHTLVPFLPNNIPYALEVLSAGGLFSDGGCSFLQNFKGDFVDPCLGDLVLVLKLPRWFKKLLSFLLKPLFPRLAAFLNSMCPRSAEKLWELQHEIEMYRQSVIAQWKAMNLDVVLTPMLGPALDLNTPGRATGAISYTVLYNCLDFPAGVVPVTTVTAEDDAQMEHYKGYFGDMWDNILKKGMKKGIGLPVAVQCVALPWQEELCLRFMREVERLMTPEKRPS

FAAH [3] = target: T3, FAAH (Homo sapiens, UniProt O00519); assay: In vitro competitive activity-based protein profiling, FAAH, human; settings: for inhibition at 1 µM: read-out: FAAH % inh. 1 μM (human); for inhibition at 10 µM: read-out: FAAH % inh. (human) at 10 uM
T3 sequence (O00519 1-579): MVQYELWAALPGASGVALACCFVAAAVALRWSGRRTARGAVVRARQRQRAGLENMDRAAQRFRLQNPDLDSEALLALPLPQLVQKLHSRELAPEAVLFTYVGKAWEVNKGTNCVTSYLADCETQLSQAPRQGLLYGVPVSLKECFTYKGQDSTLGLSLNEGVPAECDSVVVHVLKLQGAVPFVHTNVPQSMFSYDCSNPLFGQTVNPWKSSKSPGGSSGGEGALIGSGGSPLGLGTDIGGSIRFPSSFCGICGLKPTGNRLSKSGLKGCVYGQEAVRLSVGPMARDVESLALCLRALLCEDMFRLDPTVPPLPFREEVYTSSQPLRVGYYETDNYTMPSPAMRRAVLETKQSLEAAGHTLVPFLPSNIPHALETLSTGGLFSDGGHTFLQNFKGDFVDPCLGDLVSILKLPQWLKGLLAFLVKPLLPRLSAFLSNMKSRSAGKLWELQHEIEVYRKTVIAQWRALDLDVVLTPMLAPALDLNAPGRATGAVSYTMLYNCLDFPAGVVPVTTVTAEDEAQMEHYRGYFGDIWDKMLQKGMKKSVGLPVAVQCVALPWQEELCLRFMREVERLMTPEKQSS
Procedure: Biological Evaluation In Vitro Competitive Activity-Based Protein Profiling.
Proteomes (mouse brain membrane fraction for mouse assays; human prefrontal cortex membrane fractions for human assays) (50 mL, 1.0 mg/mL total protein concentration) were preincubated with varying concentrations of inhibitors at 37° C. After 30 min, FP-Rh (1.0 mL, 50 mM in DMSO) was added and the mixture was incubated for another 30 min at 37° C. Reactions were quenched with SDS loading buffer (15 μL—4λ) and run on SDS-PAGE.

MAGL [4] = target: T4, MAGL (Mus musculus, UniProt O35678); assay: In vitro competitive activity-based protein profiling, MAGL, mouse; settings: read-out: MAGL % inh. 1 μM (mouse)
T4 sequence (O35678 1-303): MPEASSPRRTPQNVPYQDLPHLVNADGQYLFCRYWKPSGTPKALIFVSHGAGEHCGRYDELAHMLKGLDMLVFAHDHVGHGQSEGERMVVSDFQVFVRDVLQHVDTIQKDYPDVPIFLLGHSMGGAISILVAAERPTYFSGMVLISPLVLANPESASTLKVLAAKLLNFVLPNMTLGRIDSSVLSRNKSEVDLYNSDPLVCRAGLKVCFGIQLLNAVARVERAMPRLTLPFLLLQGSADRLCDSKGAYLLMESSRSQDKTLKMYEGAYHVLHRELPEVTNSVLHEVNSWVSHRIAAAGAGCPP

Compound | IC50 (MAGL [1]) [nM] | inhibition at 1 µM (MAGL [1]) [%] | inhibition at 1 µM (FAAH [2]) [%] | IC50 (FAAH [3]) [nM] | inhibition at 1 µM (FAAH [3]) [%] | inhibition at 1 µM (MAGL [4]) [%] | inhibition at 10 µM (MAGL [1]; read-out: MAGL % inh. (human) at 10 uM) [%] | inhibition at 10 µM (FAAH [3]) [%]
Cc1cn(C(=O)N2CCC3(CC2)CN(Cc2cc(Cl)ccc2C(F)(F)F)C3)nc1C(=O)O [Example 131, 1-(2-(5-chloro-2-(trifluoromethyl)benzyl)-2,7-diazaspiro[3.5]non-ane-7-carbonyl)-4-methyl-1H-pyrazole-3-carboxylic acid] | 100 to 1000 | > 75 | 0 to 25 | 1000 to 10000 | 0 to 25 | > 75 |  | 
O=C(O)c1ccn(C(=O)N2CCN(Cc3cc(Cl)cc(Oc4ccc(Cl)cc4)c3)CC2)n1 [Example 19, 1-(4-(3-Chloro-5-(4-chlorophenoxy)benzyl)piperazine-1-carbonyl)-1H-pyrazole-3-carboxylic Acid] |  | > 75 | > 75 | 100 to 1000 | > 75 | > 75 |  | 
O=C(O)c1ccn(C(=O)N2CCN(Cc3cccc(Oc4ccncc4)c3)CC2)n1 [Example 59, 1-(4-(3-(pyridin-4-yloxy)benzyl)piper-azine-1-carbonyl)-1H-pyrazole-3-carboxylic acid] |  | > 75 | 0 to 25 |  | 0 to 25 | > 75 |  | 
O=C(O)c1ccn(C(=O)N2CCC3(CCN(Cc4cc(F)cc(F)c4)C3)CC2)n1 [Example 79, 1-(2-(3,5-difluorobenzyl)-2,8-diazaspiro[4.5]decane-8-carbonyl)-1H-pyrazole-3-carboxylic acid] |  |  | 0 to 25 |  |  | 0 to 25 | > 75 | 50 to 75
CN(Cc1cccc(C(F)(F)F)c1)C1CCN(C(=O)n2ccc(C(N)=O)n2)CC1 [Example 176, 1-(4-(methyl(3-(trifluoromethyl)benzyl)amino)piper-idine-1-carbonyl)-1H-pyrazole-3-carboxamide] |  | > 75 | > 75 |  | > 75 | > 75 |  | 
O=C(O)c1nn(C(=O)N2CC3CN(Cc4ccc(-c5cnc6ccccn56)cc4C(F)(F)F)CC3C2)cc1Cl (centres unmarked) [Example 20, 4-Chloro-1-(5-(4-(imidazo[1,2-a]pyridin-3-yl)-2-(trifluoromethyl)benzyl)octahydropyrrolo[3,4-c]pyrrole-2-carbonyl)-1H-pyrazole-3-carboxylic Acid] | 100 to 1000 | > 75 | > 75 | 1000 to 10000 | > 75 | > 75 |  | 
CN(Cc1cc(Cl)ccc1C(F)(F)F)C1CCN(C(=O)n2cc(Cl)c(C(=O)O)n2)CC1 [Example 112, 4-chloro-1-(4-((5-chloro-2-(trifluoromethyl)benzyl)(methyl)amino)piperidine-1-carbonyl)-1H-pyrazole-3-carboxylic acid] |  | > 75 | > 75 | 100 to 1000 | > 75 | > 75 |  | 
O=C(O)c1nn(C(=O)N2CC3CN(Cc4cc(N5CCCC5)cc(C(F)(F)F)c4)CC3C2)cc1Cl (centres unmarked) [Example 151, 4-chloro-1-(5-(3-(pyrrolidin-1-yl)-5-(trifluoromethyl)benzyl)octahydro-pyrrolo[3,4-c]pyrrole-2-carbonyl)-1H-pyrazole-3-carboxylic acid] |  | > 75 | 25 to 50 |  | 25 to 50 | > 75 |  | 

Now from value to compound:

IC50 (MAGL [1]) [nM] | inhibition at 1 µM (MAGL [1]) [%] | inhibition at 1 µM (FAAH [2]) [%] | IC50 (FAAH [3]) [nM] | inhibition at 1 µM (FAAH [3]) [%] | inhibition at 1 µM (MAGL [4]) [%] | inhibition at 10 µM (MAGL [1]; read-out: MAGL % inh. (human) at 10 uM) [%] | inhibition at 10 µM (FAAH [3]) [%] | Compound
 | > 75 | 50 to 75 |  | > 75 | > 75 |  |  | NC(=O)c1ccn(C(=O)N2CCN(Cc3ccc(C(F)(F)F)cc3N3CCCC3)CC2)n1 [Example 173, 1-(4-(2-(pyrrolidin-1-yl)-4-(trifluoromethyl)benzyl)piperazine-1-carbonyl)-1H-pyrazole-3-carboxamide]
 | > 75 | 0 to 25 | 100 to 1000 | 50 to 75 | > 75 |  |  | CN(Cc1cc(Cl)ccc1C(F)(F)F)C1CCN(C(=O)n2ccc(C(=O)O)n2)CC1 [Example 81, 1-(4-((5-chloro-2-(trifluoromethyl)benzyl)(methyl)amino)piperidine-1-carbonyl)-1H-pyrazole-3-carboxylic acid]
 | > 75 | 50 to 75 |  | 0 to 25 | > 75 |  |  | O=C(O)c1ccn(C(=O)N2CCC3(CCCN3C(=O)c3cc4ccc(C(F)(F)F)cc4s3)CC2)n1 [Example 56, 1-(1-(6-(trifluoromethyl)benzo[b]thiophene-2-carbonyl)-1,8-diazaspiro[4.5]decane-8-carbonyl)-1H-pyrazole-3-carboxylic acid]
 | > 75 | > 75 | 100 to 1000 | > 75 | > 75 |  |  | O=C(O)c1ccn(C(=O)N2CCN(Cc3cccc(Oc4ccc(C(F)(F)F)cn4)c3)CC2)n1 [Example 61, 1-(4-(3-((5-(trifluoromethyl)pyridin-2-yl)oxy)benzyl)piper-azine-1-carbonyl)-1H-pyrazole-3-carboxylic acid]
 | 25 to 50 | 0 to 25 |  |  | 50 to 75 |  | > 75 | O=C(O)c1ccn(C(=O)N2CCN(Cc3ccc(Cl)cc3)CC2)n1 [Example 1, 1-(4-(4-chlorobenzyl)piperazine-1-carbonyl)-1H-pyrazole-3-carboxylic Acid]
 | > 75 | 0 to 25 |  | 0 to 25 | > 75 |  |  | O=C(O)c1ccn(C(=O)N2CCN(Cc3ccc(C(F)(F)F)cc3N3CCN4CCC[C@H]4C3)CC2)n1 [Example 49, (S)-1-(4-(2-(hexahydropyrrolo [1,2-a]pyrazin-2(1H)-yl)-4-(trifluoromethyl)benzyl)piperazine-1-carbonyl)-1H-pyrazole-3-carboxylic acid]
 | > 75 | > 75 | 100 to 1000 | > 75 | > 75 |  |  | CN(Cc1cc(Cl)ccc1C(F)(F)F)CC1CCN(C(=O)n2ccc(C(=O)O)n2)CC1 [Example 209, 1-(4-(((5-chloro-2-(trifluoromethyl)benzyl)(methyl)amino)methyl)piper-idine-1-carbonyl)-1H-pyrazole-3-carboxylic acid]
 | > 75 | 0 to 25 |  | 0 to 25 | > 75 |  |  | O=C(O)c1ccn(C(=O)N2CCN(Cc3nc4ccccc4s3)CC2)n1 [Example 189, 1-(4-(benzo[d]thiazol-2-ylmethyl)piperazine-1-carbonyl)-1H-pyrazole-3-carboxylic acid]
 | > 75 | 0 to 25 |  | 25 to 50 | > 75 |  |  | O=C(O)c1ccn(C(=O)N2CCN(Cc3ccc(C(F)(F)F)cc3N3CCC(F)CC3)CC2)n1 [Example 102, 1-(4-(2-(4-fluoropiperidin-1-yl)-4-(trifluoromethyl)benzyl)piperazine-1-carbonyl)-1H-pyrazole-3-carboxylic acid]
